Laboratory results published in PubChem BioAssay (NCI).
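Method: 48-hour compound exposure of cells in 96-well plates, five concentrations, linear interpolation of endpoints. GI50 = concentration required for 50% inhibition of growth. At the TGI there is no net growth.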

Experiments:
Experiment in all cases: NCI anticancer screen, dose series, 48 h
MALME-3M melanoma = test system: MALME-3M melanoma
U251 CNS = test system: U251 CNS
T-47D breast = test system: T-47D breast
HCC-2998 colon = test system: HCC-2998 colon
NCI-H226 lung = test system: NCI-H226 lung
OVCAR-5 ovarian = test system: OVCAR-5 ovarian
ACHN renal = test system: ACHN renal
HOP-62 NSCLC = test system: HOP-62 NSCLC
NCI/ADR-RES ovarian = test system: NCI/ADR-RES ovarian
K-562 leukemia = test system: K-562 leukemia
NCI-H23 lung = test system: NCI-H23 lung
SNB-19 CNS = test system: SNB-19 CNS
HS 578T breast = test system: HS 578T breast
HCT-116 colon = test system: HCT-116 colon
786-0 renal = test system: 786-0 renal
COLO 205 colon = test system: COLO 205 colon
SF-539 CNS = test system: SF-539 CNS
M14 melanoma = test system: M14 melanoma
NCI-H460 lung = test system: NCI-H460 lung
EKVX NSCLC = test system: EKVX NSCLC
SK-MEL-2 melanoma = test system: SK-MEL-2 melanoma
RXF 393 renal = test system: RXF 393 renal
A549 NSCLC = test system: A549 NSCLC
OVCAR-4 ovarian = test system: OVCAR-4 ovarian
SK-MEL-5 melanoma = test system: SK-MEL-5 melanoma
IGROV1 ovarian = test system: IGROV1 ovarian
SW-620 colon = test system: SW-620 colon
HT29 colon = test system: HT29 colon
KM12 colon = test system: KM12 colon
TK-10 renal = test system: TK-10 renal
UACC-257 melanoma = test system: UACC-257 melanoma
SR leukemia = test system: SR leukemia
UACC-62 melanoma = test system: UACC-62 melanoma
A498 renal = test system: A498 renal
MOLT-4 leukemia = test system: MOLT-4 leukemia
MDA-MB-231 breast = test system: MDA-MB-231 breast
OVCAR-8 ovarian = test system: OVCAR-8 ovarian
MCF7 breast = test system: MCF7 breast
NCI-H522 lung = test system: NCI-H522 lung
HCT-15 colon = test system: HCT-15 colon
SNB-75 CNS = test system: SNB-75 CNS
SF-268 CNS = test system: SF-268 CNS
SN12C renal = test system: SN12C renal
RPMI-8226 leukemia = test system: RPMI-8226 leukemia
HL-60(TB) leukemia = test system: HL-60(TB) leukemia
PC-3 prostate = test system: PC-3 prostate
DU-145 prostate = test system: DU-145 prostate
HOP-92 NSCLC = test system: HOP-92 NSCLC
UO-31 renal = test system: UO-31 renal
SK-MEL-28 melanoma = test system: SK-MEL-28 melanoma
SK-OV-3 ovarian = test system: SK-OV-3 ovarian
MDA-MB-435 = test system: MDA-MB-435
OVCAR-3 ovarian = test system: OVCAR-3 ovarian
SF-295 CNS = test system: SF-295 CNS
CCRF-CEM leukemia = test system: CCRF-CEM leukemia
LOX IMVI melanoma = test system: LOX IMVI melanoma
BT-549 breast = test system: BT-549 breast
CAKI-1 renal = test system: CAKI-1 renal

O=C(CSCC(=O)N/N=C/c1ccc(F)cc1)N/N=C/c1ccc(F)cc1
TGI (MALME-3M melanoma): > 100 µM
TGI (U251 CNS): > 100 µM
TGI (T-47D breast): > 100 µM
TGI (HCC-2998 colon): > 100 µM
TGI (NCI-H226 lung): > 100 µM
TGI (OVCAR-5 ovarian): > 100 µM
TGI (ACHN renal): > 100 µM
TGI (HOP-62 NSCLC): > 100 µM
TGI (NCI/ADR-RES ovarian): > 100 µM
TGI (K-562 leukemia): > 100 µM
TGI (NCI-H23 lung): > 100 µM
TGI (SNB-19 CNS): > 100 µM
TGI (HS 578T breast): > 100 µM
TGI (HCT-116 colon): > 100 µM
TGI (786-0 renal): > 100 µM
TGI (COLO 205 colon): > 100 µM
TGI (SF-539 CNS): > 100 µM
TGI (M14 melanoma): > 100 µM
TGI (NCI-H460 lung): > 100 µM
TGI (EKVX NSCLC): > 100 µM
TGI (SK-MEL-2 melanoma): > 100 µM
TGI (RXF 393 renal): > 100 µM
TGI (A549 NSCLC): > 100 µM
TGI (OVCAR-4 ovarian): > 100 µM
TGI (SK-MEL-5 melanoma): > 100 µM
TGI (IGROV1 ovarian): > 100 µM
TGI (SW-620 colon): > 100 µM
TGI (HT29 colon): > 100 µM
TGI (KM12 colon): > 100 µM
TGI (TK-10 renal): > 100 µM
TGI (UACC-257 melanoma): > 100 µM
TGI (SR leukemia): > 100 µM
TGI (UACC-62 melanoma): > 100 µM
TGI (A498 renal): > 100 µM
TGI (MOLT-4 leukemia): 76.9 µM
TGI (MDA-MB-231 breast): > 100 µM
TGI (OVCAR-8 ovarian): > 100 µM
TGI (MCF7 breast): > 100 µM
TGI (NCI-H522 lung): > 100 µM
TGI (HCT-15 colon): > 100 µM
TGI (SNB-75 CNS): > 100 µM
TGI (SF-268 CNS): > 100 µM
TGI (SN12C renal): > 100 µM
TGI (RPMI-8226 leukemia): > 100 µM
TGI (HL-60(TB) leukemia): > 100 µM
TGI (PC-3 prostate): > 100 µM
TGI (DU-145 prostate): > 100 µM
TGI (HOP-92 NSCLC): > 100 µM
TGI (UO-31 renal): > 100 µM
TGI (SK-MEL-28 melanoma): > 100 µM
TGI (SK-OV-3 ovarian): > 100 µM

CCSc1sc(-c2ccc(C)cc2)nc1[P+](c1ccccc1)(c1ccccc1)c1ccccc1
GI50 (MALME-3M melanoma): 0.288 µM
TGI (MALME-3M melanoma): 1.06 µM
GI50 (T-47D breast): 0.0863 µM
TGI (T-47D breast): 1.27 µM
GI50 (HCC-2998 colon): 0.47 µM
TGI (HCC-2998 colon): 1.62 µM
GI50 (OVCAR-5 ovarian): 0.376 µM
TGI (OVCAR-5 ovarian): 1.56 µM
GI50 (ACHN renal): 0.285 µM
TGI (ACHN renal): 1.01 µM
GI50 (HOP-62 NSCLC): 0.316 µM
TGI (HOP-62 NSCLC): 1.38 µM
GI50 (K-562 leukemia): 0.195 µM
TGI (K-562 leukemia): 1.44 µM
GI50 (NCI-H23 lung): 0.273 µM
TGI (NCI-H23 lung): 0.881 µM
GI50 (SNB-19 CNS): 0.332 µM
TGI (SNB-19 CNS): 1.39 µM
GI50 (HS 578T breast): 0.394 µM
TGI (HS 578T breast): 2.05 µM
GI50 (HCT-116 colon): 0.252 µM
TGI (HCT-116 colon): 1.17 µM
GI50 (786-0 renal): 0.375 µM
TGI (786-0 renal): 1.57 µM
GI50 (SF-539 CNS): 0.394 µM
TGI (SF-539 CNS): 1.53 µM
GI50 (M14 melanoma): 0.342 µM
TGI (M14 melanoma): 1.51 µM
GI50 (NCI-H460 lung): 0.306 µM
TGI (NCI-H460 lung): 1.12 µM
GI50 (EKVX NSCLC): 0.244 µM
TGI (EKVX NSCLC): 0.904 µM
GI50 (SK-MEL-2 melanoma): 0.273 µM
TGI (SK-MEL-2 melanoma): 0.805 µM
GI50 (MDA-MB-435): 0.268 µM
TGI (MDA-MB-435): 0.801 µM
GI50 (RXF 393 renal): 0.255 µM
TGI (RXF 393 renal): 1.23 µM
GI50 (OVCAR-4 ovarian): 0.275 µM
TGI (OVCAR-4 ovarian): 1.05 µM
GI50 (SK-MEL-5 melanoma): 0.174 µM
TGI (SK-MEL-5 melanoma): 0.321 µM
GI50 (OVCAR-3 ovarian): 0.3 µM
TGI (OVCAR-3 ovarian): 1.18 µM
GI50 (SW-620 colon): 0.332 µM
TGI (SW-620 colon): 1.34 µM
GI50 (SF-295 CNS): 0.235 µM
TGI (SF-295 CNS): 0.736 µM
GI50 (KM12 colon): 0.281 µM
TGI (KM12 colon): 1.16 µM
GI50 (CCRF-CEM leukemia): 0.377 µM
TGI (CCRF-CEM leukemia): 2.14 µM
GI50 (TK-10 renal): 0.271 µM
TGI (TK-10 renal): 1.48 µM
GI50 (UACC-257 melanoma): 0.294 µM
TGI (UACC-257 melanoma): 1.05 µM
GI50 (SR leukemia): 0.354 µM
TGI (SR leukemia): 3.47 µM
GI50 (UACC-62 melanoma): 0.292 µM
TGI (UACC-62 melanoma): 1.24 µM
GI50 (LOX IMVI melanoma): 0.267 µM
TGI (LOX IMVI melanoma): 0.913 µM
GI50 (A498 renal): 0.161 µM
TGI (A498 renal): 0.597 µM
GI50 (MOLT-4 leukemia): 0.391 µM
TGI (MOLT-4 leukemia): 1.87 µM
GI50 (MDA-MB-231 breast): 0.259 µM
TGI (MDA-MB-231 breast): 1.14 µM
GI50 (OVCAR-8 ovarian): 0.313 µM
TGI (OVCAR-8 ovarian): 1.89 µM
GI50 (NCI-H522 lung): 0.304 µM
TGI (NCI-H522 lung): 1.23 µM
GI50 (HCT-15 colon): 0.315 µM
TGI (HCT-15 colon): 1.18 µM
GI50 (SNB-75 CNS): 0.192 µM
TGI (SNB-75 CNS): 0.802 µM
GI50 (SF-268 CNS): 0.328 µM
TGI (SF-268 CNS): 1.43 µM
GI50 (SN12C renal): 0.294 µM
TGI (SN12C renal): 1.11 µM
GI50 (RPMI-8226 leukemia): 0.13 µM
TGI (RPMI-8226 leukemia): 0.477 µM
GI50 (BT-549 breast): 0.295 µM
TGI (BT-549 breast): 1.32 µM
GI50 (HL-60(TB) leukemia): 0.206 µM
TGI (HL-60(TB) leukemia): 0.542 µM
GI50 (PC-3 prostate): 0.231 µM
TGI (PC-3 prostate): 1.14 µM
GI50 (DU-145 prostate): 0.346 µM
TGI (DU-145 prostate): 1.35 µM
GI50 (HOP-92 NSCLC): 0.174 µM
TGI (HOP-92 NSCLC): 0.593 µM
GI50 (UO-31 renal): 0.254 µM
TGI (UO-31 renal): 0.866 µM
GI50 (SK-MEL-28 melanoma): 0.532 µM
TGI (SK-MEL-28 melanoma): 1.82 µM
GI50 (CAKI-1 renal): 0.488 µM
TGI (CAKI-1 renal): 1.35 µM
GI50 (SK-OV-3 ovarian): 0.262 µM
TGI (SK-OV-3 ovarian): 0.898 µM
